Measured values reported in US9545385B2, “Inhibitors of hemeprotein-catalyzed lipid peroxidation” (VANDERBILT UNIVERSITY, priority 2013, dated 2017).

Tests used:
[1] = Antioxidant rate constant kinh in chemical tests, relative to α-TOH
From the text: Antioxidants, most commonly substituted phenols, effectively intercept peroxyls by transferring the phenolic H-atom to a propagating peroxyl radical, with a rate constant kinh that is faster than that of chain propagation. The most famous example of a phenolic antioxidant is vitamin E (α-toco-pherol, α-TOH) nature's hydrophobic defense against radical chain oxidation.
Compounds of the present invention have a higher kinh and serve as better antioxidants than α-TOH in chemical tests. The critical antioxidant step is shown in Equation 1, the larger the kinh, the better the antioxidant. The simple pyridinol 2a shown below is nearly 5 times better than α-TOH as an antioxidant and the bicyclic compounds 3a and 4a are over 20 times better than the vitamin. […]

[2] = Direct cellular toxicity (total cellular ATP levels); type: cell-based; conditions: human, HepG2 cells, read-out: Cellular Toxicity (EC50, μM ± SD)
From the text: Values represent means±S.E.M.

[3] = Microsomal stability; conditions: % of unmodified compound remaining after reaction; human liver microsomes
[4] = molecular target: COX-1 (Homo sapiens, UniProt P23219); assay: Inhibition of COX-1-catalyzed oxidation of arachidonic acid (Example 6); type: biochemical
Sequence of COX-1 (P23219 24-599, species assumed): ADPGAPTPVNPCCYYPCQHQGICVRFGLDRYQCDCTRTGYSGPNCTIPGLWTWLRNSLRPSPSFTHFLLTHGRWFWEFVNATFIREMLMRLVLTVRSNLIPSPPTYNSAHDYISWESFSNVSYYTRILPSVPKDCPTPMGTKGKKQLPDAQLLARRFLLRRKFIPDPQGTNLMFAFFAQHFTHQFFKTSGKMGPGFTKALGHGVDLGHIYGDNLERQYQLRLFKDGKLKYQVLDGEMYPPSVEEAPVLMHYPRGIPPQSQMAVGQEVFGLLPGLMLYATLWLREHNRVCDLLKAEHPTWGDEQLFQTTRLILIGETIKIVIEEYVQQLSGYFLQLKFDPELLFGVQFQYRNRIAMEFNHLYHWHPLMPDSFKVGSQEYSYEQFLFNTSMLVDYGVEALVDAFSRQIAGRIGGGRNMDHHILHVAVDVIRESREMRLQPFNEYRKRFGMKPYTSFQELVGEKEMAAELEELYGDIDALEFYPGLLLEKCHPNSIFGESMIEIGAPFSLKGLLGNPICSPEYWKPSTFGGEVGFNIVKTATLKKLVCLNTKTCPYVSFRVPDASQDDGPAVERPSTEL
Procedure: (§1) The inhibition of the lipid peroxidation produced by myoglobin (Mb) and COX-1 by the different analogs was tested. Values represent the IC50 for each hemeprotein and are expressed as means±S.E.M. a: value reported from (1.). b: value reported from (3).

[5] = molecular target: T1, myoglobin (Mb) (Homo sapiens, UniProt P02144); assay: Inhibition of myoglobin-induced oxidation of arachidonic acid; type: biochemical; conditions: among ApAP and analogs 12-14
T1 sequence (P02144 1-154): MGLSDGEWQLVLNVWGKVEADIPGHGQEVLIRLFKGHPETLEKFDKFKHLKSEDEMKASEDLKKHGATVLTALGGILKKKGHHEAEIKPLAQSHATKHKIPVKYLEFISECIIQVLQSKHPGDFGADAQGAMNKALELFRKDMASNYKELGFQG
Procedure: as §1

[6] = system: rat model of rhabdomyolysis; assay: Rat model of rhabdomyolysis (myoglobin-catalyzed lipid peroxidation, renal failure); type: in vivo; conditions: dose giving plasma levels in the human therapeutic range
[7] = molecular target: T2, ferryl myoglobin (Homo sapiens, UniProt P02144); assay: Reduction of ferryl myoglobin to ferric myoglobin; type: biochemical; conditions: compared with acetaminophen
T2 sequence (P02144 1-154): T1 sequence (P02144 1-154)
Procedure: Ferryl myoglobin was generated by incubating ferric myoglobin 10 μM in PBS with 10 μM hydrogen peroxide until there was no more change in the peak at 421 nm. At this time, the analogs were added to the cuvette at the final concentrations indicated and spectra were recorded every 15 sec for 2 min. The initial rate of reduction was calculated as the variation of absorbance at 409 nm in the first two minutes after adding the analogs. In this period of time the rates of reduction were linear for each concentration of analog.

[8] = system: HepG2 liver cell line
Procedure: HepG2 were plated in multiple 96-well plates at 2×10^4 cells per well and pretreated with ethanol 100 μM for 2 hours. […] Cell viability after 24 h was determined by measuring ATP levels by luminescence assay.

[9] = molecular target: T3, PGHS-2 (COX-2) (Homo sapiens, UniProt P35354); assay: Inhibition of hematin-reconstituted COX-2, [14C] arachidonic acid oxidation; type: biochemical; conditions: compared with PGHS-1
T3 sequence (P35354 18-604): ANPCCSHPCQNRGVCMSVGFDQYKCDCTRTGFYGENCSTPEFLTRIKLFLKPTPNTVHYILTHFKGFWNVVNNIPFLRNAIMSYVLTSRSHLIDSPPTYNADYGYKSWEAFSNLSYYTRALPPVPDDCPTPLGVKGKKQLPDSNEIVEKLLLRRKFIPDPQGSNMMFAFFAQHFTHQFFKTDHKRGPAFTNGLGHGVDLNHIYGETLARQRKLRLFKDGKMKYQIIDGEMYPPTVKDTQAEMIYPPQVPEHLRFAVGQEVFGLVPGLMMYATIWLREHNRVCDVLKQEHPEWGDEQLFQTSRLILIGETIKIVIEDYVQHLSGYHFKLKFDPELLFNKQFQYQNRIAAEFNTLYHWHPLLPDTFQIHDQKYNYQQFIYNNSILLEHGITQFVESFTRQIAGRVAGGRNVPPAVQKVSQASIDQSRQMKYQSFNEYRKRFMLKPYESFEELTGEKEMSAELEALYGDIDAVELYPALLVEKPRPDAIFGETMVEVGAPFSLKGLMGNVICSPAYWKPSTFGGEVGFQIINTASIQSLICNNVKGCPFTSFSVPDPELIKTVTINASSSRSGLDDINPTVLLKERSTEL
Procedure: Hematin-reconstituted COX-1 (5.4 nM) or COX-2 (10.8 nM) in Tris HCl 100 mM, pH 8.0, 500 μM phenol, was pre-incubated with N-dimethyl pyrimidinol (DM, plain line) or N-dimethyl pyridinol (DR, dashed line) at varying concentrations at 37° C. for 20 minutes. At this time the reaction was initiated by addition of 0.5 μM of [14C] arachidonic acid. After 8 seconds, the reaction was stopped by adding an ice cold mixture of diethyl ether/methanol/4.0 M citric acid. PGHS-1 activity was expressed as percent oxidation of arachidonic acid compared with control where no inhibitor was added. Each data point represents the mean±S.E.M of six values.

For Cc1cc(N(C)C)nc(C)c1O [Analog 2a], the “antioxidant potency, times better than α-TOH” value [1] was about 5 times.
For O=C1NCc2cc(O)cnc2N1 [Analog 12], the EC50 at 24 h [2] was 4760 ± 36 µM and the “Microsomal stability % left” value [3] was 158 ± 33%.
For Cc1nc2c(c(C)c1O)CNC(=O)N2 [Analog 13], the EC50 at 24 h [2] was 2960 ± 284 µM, the “inhibition of COX-1, in words” value ([4]; at concentrations up to 1 mM) was “not able to significantly inhibit” and the “Microsomal stability % left” value [3] was 87 ± 7%.
In the case of Cc1nc2c(c(C)c1O)COC(=O)N2 [Analog 14], the EC50 at 24 h [2] is reported as over 5000 µM, the “rank in inhibiting myoglobin-induced arachidonic oxidation” value [5] is reported as “least potent” and the “rank in inhibiting COX-1 activity” value ([4]; among ApAP and analogs 12-14) is reported as “most potent”. For the same molecule, the “Microsomal stability % left” value [3] was 97 ± 3%.
With CC(=O)Nc1ccc(O)cc1 [ApAP, acetaminophen] the “lipid peroxidation in rhabdomyolysis model” value ([6]; listed as Acetaminophen) was “blocked lipid peroxidation”, the “renal failure in rhabdomyolysis model” value ([6]; listed as Acetaminophen) was “prevented the renal failure” and the “lipid peroxidation in rhabdomyolysis model” value ([6]; listed as acetaminophen) was “blocks”. For the same molecule, the “renal failure in rhabdomyolysis model” value ([6]; listed as acetaminophen) was “blocks” and the EC50 at 24 h [2] was 594 ± 147 µM.
For CN(C)c1ncc(O)cn1 [DM-Pym, 2-(dimethylamino)pyrimidin-5-ol], the “potency in reducing ferryl myoglobin” value [7] was “remarkably more potent than acetaminophen” and the “cytotoxicity in ethanol-induced HepG2 model” value [8] was “does not cause cytotoxicity”.
With CN(C)c1ccc(O)cn1 [DM-Pyr, 6-(dimethylamino) pyridin-3-ol] the “inhibition of PGHS-2 (COX-2), in words” value [9] was “only a weak inhibitor”.
